The record followed here is patent publication US20240247080A1, “GLP1/GIP/NPY2 RECEPTOR TRIPLE AGONISTS” (Boehringer Ingelheim International GmbH, priority 2022, published 2024).

Series [1] has as its target T1, hGLP1R (Homo sapiens, UniProt P43220).
T1 construct: expressed in transfected cells; host or cells: HEK-293 cells carrying a CRE-luciferase reporter gene
Put plainly: hGLP1R CreLuc reporter gene assay in 0.5% and 100% plasma. Format: cell-based. Conditions: CreLuc reporter gene assay. The method, boiled down: (§1)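 HEK-293 cells co-expressing GLP-1 or NPY2 receptor and CHO cells expressing GIP receptor, each carrying a CRE-driven luciferase reporter, were stimulated with peptides for 4 hours at 37 °C. Luminescence was read after Bright-Glo addition. EC50 came from 8-point, four-decade curves fitted by variable-slope non-linear regression.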

The target in series [2] is T2, hGIPR (Homo sapiens, UniProt P48546).
T2 construct: expressed in transfected cells; host or cells: CHO cells carrying a CRE-luciferase reporter gene
T2 sequence (P48546 22-466): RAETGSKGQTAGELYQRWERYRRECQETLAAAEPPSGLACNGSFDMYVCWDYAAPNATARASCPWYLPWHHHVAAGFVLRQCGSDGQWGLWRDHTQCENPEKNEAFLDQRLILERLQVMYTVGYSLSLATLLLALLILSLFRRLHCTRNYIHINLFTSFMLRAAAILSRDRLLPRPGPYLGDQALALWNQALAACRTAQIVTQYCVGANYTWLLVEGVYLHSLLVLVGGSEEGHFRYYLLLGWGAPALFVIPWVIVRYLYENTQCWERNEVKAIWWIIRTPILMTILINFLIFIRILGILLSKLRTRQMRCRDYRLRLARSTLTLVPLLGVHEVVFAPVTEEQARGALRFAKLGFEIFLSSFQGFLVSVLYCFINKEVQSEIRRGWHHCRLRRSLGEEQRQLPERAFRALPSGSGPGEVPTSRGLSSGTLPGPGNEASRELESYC
Put plainly: hGIPR CreLuc reporter gene assay in 0.5% and 100% plasma. Format: cell-based. Conditions: CreLuc reporter gene assay. The method, boiled down:
as §1
(In general: A reporter such as luciferase makes a cellular process visible.)

Series [3] addresses T3, hNPY2R (Homo sapiens, UniProt P49146).
T3 construct: expressed in transfected cells; host or cells: HEK-293 cells carrying a CRE-luciferase reporter gene
T3 sequence (P49146 1-381): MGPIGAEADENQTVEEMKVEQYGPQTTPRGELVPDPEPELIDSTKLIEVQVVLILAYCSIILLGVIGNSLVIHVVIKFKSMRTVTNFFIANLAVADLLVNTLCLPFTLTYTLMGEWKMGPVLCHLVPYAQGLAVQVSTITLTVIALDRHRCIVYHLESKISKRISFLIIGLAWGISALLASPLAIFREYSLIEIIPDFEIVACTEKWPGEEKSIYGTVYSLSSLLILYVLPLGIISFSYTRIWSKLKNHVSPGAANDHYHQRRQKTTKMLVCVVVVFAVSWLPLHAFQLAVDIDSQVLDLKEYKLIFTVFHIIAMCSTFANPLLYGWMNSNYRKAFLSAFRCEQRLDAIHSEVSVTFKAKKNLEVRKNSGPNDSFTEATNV
Put plainly: hNPY2R CreLuc reporter gene assay in 0.5% and 100% plasma. Format: cell-based. Conditions: CreLuc reporter gene assay. The method, boiled down: as §1

A short description of series [4]: Mouse PK after intravenous application. Format: in vivo. Conditions: plasma, mean residence time, intravenous 30-60 nmol/kg, male NMRI mice. The method, boiled down: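 Male NMRI mice (30–40 g) received 30-60 nmol/kg peptide by tail-vein injection, dissolved in 50 mM phosphate buffer (pH 7.4)/3.5% mannitol. Saphenous blood was sampled up to 56 hours post-dose and EDTA plasma analysed by LC-MS. PK parameters came from non-compartmental analysis.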

The nature of series [5]: Effect on acute food intake in normal NMRI mice. Format: in vivo. Conditions: 30 nmol/kg subcutaneously once, normalized to vehicle group, male NMRI mice. The procedure:
Example 4: Effect on Acute Food Intake in Normal NMRI Mice
Male NMRI mice were obtained from Janvier (Janvier Labs, France) or from Charles River (Charles River Research Models & Services Germany GmbH) at the age of 3 weeks. The animals get a microchip (Datamars, Slim Microchip T-SL) for individual identification after delivery. They were housed with 4 mice per cage under a 12/12 dark-light cycle, light off at 3 p.m. Room temperature was controlled to 21° C. +/−1° C. and humidity 60%+/−20%. Mice had ad libitum access to regular rodent chow (KLIBA Nafag 3040 or Altromin 1324, Brogaarden, Denmark) and tap water.
Latest transfer into the HM2-System of MBRose, Denmark (real-time monitoring system of food- and water intake) of the animals 5 days before study start, to allow acclimatization to experimental conditions. As the animals were uniquely identified with the microchips, each individual animal was identified by its own microchip upon entry and exit from the food channel via antennae. Randomization of the mice for each study group (n=8; age earliest 6 weeks old) was based on food intake (middle of last three days 24 h-Intervall) and bodyweight directly before start of the study. A vehicle treated (50 mM phosphate buffer pH7.4 with 3.5% Mannitol) group was included in each experiment. To have the same nutrition standard for each animal the food access was locked eight hours before dark phase. One hour before night, the animals were once treated subcutaneously with the test peptide. Food intake was reported hourly for a period of 24 h.

The mark [6] stands for this setting: 0.5% human plasma, read-out: hGLP1R 0.5% hP.
Where [7] appears, read: 0.5% human plasma, read-out: hGIPR 0.5% hP.
[8] abbreviates: 100% human plasma, read-out: hGIPR 100% hP.
The mark [9] stands for this setting: 0.5% human plasma, read-out: hNPY2R 0.5% hP.
Setting [10] is: 100% human plasma, read-out: hNPY2R 100% hP.

The structures appear in SMILES notation. Read-outs that look alike come from different tables or passages of the source.

T1 sequence (P43220 24-463): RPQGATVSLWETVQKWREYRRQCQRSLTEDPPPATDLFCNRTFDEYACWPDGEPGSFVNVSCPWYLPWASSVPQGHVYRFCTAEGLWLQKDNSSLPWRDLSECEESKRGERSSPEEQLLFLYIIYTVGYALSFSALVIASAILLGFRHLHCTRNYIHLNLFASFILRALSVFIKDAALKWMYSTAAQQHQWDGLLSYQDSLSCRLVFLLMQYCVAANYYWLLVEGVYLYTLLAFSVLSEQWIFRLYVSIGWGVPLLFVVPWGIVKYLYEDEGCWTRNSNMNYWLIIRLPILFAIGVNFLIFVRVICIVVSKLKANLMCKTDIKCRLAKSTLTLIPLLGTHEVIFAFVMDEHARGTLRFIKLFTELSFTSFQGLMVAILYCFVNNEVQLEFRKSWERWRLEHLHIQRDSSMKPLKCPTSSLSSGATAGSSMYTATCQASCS

For the compound `CC[C@H](C)[C@H](NC(=O)[C@H](CC(C)C)NC(=O)[C@H](Cc1c[nH]c2ccccc12)NC(=O)[C@H](CCC(N)=O)NC(=O)[C@@H](NC(=O)[C@H](Cc1ccccc1)NC(=O)[C@H](C)NC(=O)C(C)(C)NC(=O)[C@H](CCC(N)=O)NC(=O)[C@H](C)NC(=O)[C@H](CCC(N)=O)NC(=O)[C@H](CCCCN)NC(=O)[C@H](CCC(=O)O)NC(=O)[C@H](CC(C)C)NC(=O)C(C)(C)NC(=O)[C@@H](NC(=O)[C@H](CO)NC(=O)[C@H](Cc1ccc(O)cc1)NC(=O)[C@H](CC(=O)O)NC(=O)[C@H](CO)NC(=O)[C@@H](NC(=O)[C@H](Cc1ccccc1)NC(=O)[C@@H](NC(=O)CNC(=O)[C@H](CCC(=O)O)NC(=O)C(C)(C)NC(=O)[C@@H](N)Cc1ccc(O)cc1)[C@@H](C)O)[C@@H](C)O)[C@@H](C)CC)C(C)C)C(=O)N[C@@H](CCCCNC(=O)[C@@H](N)CCCCNC(=O)CC[C@H](NC(=O)CC[C@H](NC(=O)CC[C@H](NC(=O)CC[C@H](NC(=O)CC[C@H](NC(=O)CC[C@H](NC(=O)CCCCCCCCCCCCCCCCCCC(=O)O)C(=O)O)C(=O)O)C(=O)O)C(=O)O)C(=O)O)C(=O)O)C(=O)NCC(=O)NCC(=O)N1CCC[C@H]1C(=O)N[C@@H](CO)C(=O)N[C@@H](CCC(=O)O)C(=O)NCC(=O)N[C@@H](C)C(=O)N[C@@H](CO)C(=O)N[C@@H](CC(C)C)C(=O)N[C@@H](CCCNC(=N)N)C(=O)N[C@@H](Cc1c[nH]cn1)C(=O)N[C@@H](Cc1ccc(O)cc1)C(=O)N[C@@H](Cc1ccc(O)cc1)C(=O)N[C@@H](CC(N)=O)C(=O)N[C@@H](Cc1c[nH]c2ccccc12)C(=O)N[C@@H](CC(C)C)C(=O)N[C@H](C(=O)N[C@@H](CCCNC(=N)N)C(=O)N[C@@H](CCC(N)=O)C(=O)N[C@@H](CCCNC(=N)N)C(=O)N[C@@H](Cc1ccc(O)cc1)C(N)=O)[C@@H](C)O` [Compound 220, Y-Aib-E-G-T-F-T-S-D-Y-S-I-Aib-L-E-K-Q-A-Q-Aib-A-F-V-Q-W-L-I-K(1,3)-GGPSEGASLRHYYNWLTRQRY-NH2.C20DA-gGlu-gGlu-gGlu-gGlu-gGlu-gGlu-eLys(1,2)], the EC50 amounted to 0.17 nM in series [1] (setting [6]); 0.29 nM in series [2] (setting [7]); 1.83 nM in series [2] (setting [8]); 10.2 nM in series [3] (setting [9]); 42.6 nM in series [3] (setting [10]). In addition, the MRT (as a rule, a mean duration of stay, worked out from the concentration-time curve) in series [4] was 12.1 h. The “Acute Food Intake 24 h 30 nmol/kg [% CTL]” value in series [5] is reported as 45 % CTL.

Turning to `CC[C@H](C)[C@H](NC(=O)[C@H](CC(C)C)NC(=O)[C@H](Cc1c[nH]c2ccccc12)NC(=O)[C@H](CCC(=O)O)NC(=O)[C@@H](NC(=O)[C@H](Cc1ccccc1)NC(=O)[C@H](C)NC(=O)C(C)(C)NC(=O)[C@H](CCC(N)=O)NC(=O)[C@H](C)NC(=O)[C@H](CCC(N)=O)NC(=O)[C@H](CCCCN)NC(=O)[C@H](CCC(=O)O)NC(=O)[C@H](CC(C)C)NC(=O)C(C)(C)NC(=O)[C@@H](NC(=O)[C@H](CO)NC(=O)[C@H](Cc1ccc(O)cc1)NC(=O)[C@H](CC(=O)O)NC(=O)[C@H](CO)NC(=O)[C@@H](NC(=O)[C@H](Cc1ccccc1)NC(=O)[C@@H](NC(=O)CNC(=O)[C@H](CCC(=O)O)NC(=O)C(C)(C)NC(=O)[C@@H](N)Cc1ccc(O)cc1)[C@@H](C)O)[C@@H](C)O)[C@@H](C)CC)C(C)C)C(=O)N[C@@H](CCCCNC(=O)[C@@H](N)CCCCNC(=O)CC[C@H](NC(=O)CC[C@H](NC(=O)CC[C@H](NC(=O)CC[C@H](NC(=O)CC[C@H](NC(=O)CC[C@H](NC(=O)CCCCCCCCCCCCCCCCC(=O)O)C(=O)O)C(=O)O)C(=O)O)C(=O)O)C(=O)O)C(=O)O)C(=O)NCC(=O)NCC(=O)N1CCC[C@H]1C(=O)N[C@@H](CO)C(=O)N[C@@H](CO)C(=O)NCC(=O)N[C@@H](C)C(=O)N[C@@H](CO)C(=O)N[C@@H](CC(C)C)C(=O)N[C@@H](CCCNC(=N)N)C(=O)N[C@@H](Cc1c[nH]cn1)C(=O)N[C@@H](Cc1ccc(O)cc1)C(=O)N[C@@H](Cc1ccc(O)cc1)C(=O)N[C@@H](CC(N)=O)C(=O)N[C@@H](Cc1c[nH]c2ccccc12)C(=O)N[C@@H](CC(C)C)C(=O)N[C@H](C(=O)N[C@@H](CCCNC(=N)N)C(=O)N[C@@H](CCC(N)=O)C(=O)N[C@@H](CCCNC(=N)N)C(=O)N[C@@H](Cc1ccc(O)cc1)C(N)=O)[C@@H](C)O` [Compound 259, Y-Aib-E-G-T-F-T-S-D-Y-S-I-Aib-L-E-K-Q-A-Q-Aib-A-F-V-E-W-L-I-K(1,3)-GGPSSGASLRHYYNWLTRQRY-NH2.C18DA-gGlu-gGlu-gGlu-gGlu-gGlu-gGlu-eLys(1,2)], the EC50 in series [1] (setting [6]) was found to be 0.09 nM; in series [1] (100% human plasma, read-out: hGLP1R 100% hP), 2.55 nM; in series [2] (setting [7]), 0.22 nM; in series [2] (setting [8]) it was 0.91 nM; in series [3] (setting [9]), 10.7 nM; in series [3] (setting [10]), 29.3 nM. Moreover, the mean residence time MRT in series [4] was 8.4 h. Moreover, the “Acute Food Intake 24 h 30 nmol/kg [% CTL]” value in series [5] is 36 % CTL.

`CC[C@H](C)[C@H](NC(=O)[C@H](CC(C)C)NC(=O)[C@H](Cc1c[nH]c2ccccc12)NC(=O)[C@H](CCC(=O)O)NC(=O)[C@@H](NC(=O)[C@H](Cc1ccccc1)NC(=O)[C@H](C)NC(=O)C(C)(C)NC(=O)[C@H](CCC(N)=O)NC(=O)[C@H](C)NC(=O)[C@H](CCC(N)=O)NC(=O)[C@H](CCCCN)NC(=O)[C@H](CCC(=O)O)NC(=O)[C@H](CC(C)C)NC(=O)C(C)(C)NC(=O)[C@@H](NC(=O)[C@H](CO)NC(=O)[C@H](Cc1ccc(O)cc1)NC(=O)[C@H](CC(=O)O)NC(=O)[C@H](CO)NC(=O)[C@@H](NC(=O)[C@H](Cc1ccccc1)NC(=O)[C@@H](NC(=O)CNC(=O)[C@H](CCC(=O)O)NC(=O)C(C)(C)NC(=O)[C@@H](N)Cc1ccc(O)cc1)[C@@H](C)O)[C@@H](C)O)[C@@H](C)CC)C(C)C)C(=O)N[C@@H](CCCCNC(=O)[C@@H](N)CCCCNC(=O)CC[C@H](NC(=O)CC[C@H](NC(=O)CC[C@H](NC(=O)CC[C@H](NC(=O)CC[C@H](NC(=O)CC[C@H](NC(=O)CCCCCCCCCCCCCCCCCCC(=O)O)C(=O)O)C(=O)O)C(=O)O)C(=O)O)C(=O)O)C(=O)O)C(=O)NCC(=O)NCC(=O)N1CCC[C@H]1C(=O)N[C@@H](CO)C(=O)N[C@@H](CCC(=O)O)C(=O)NCC(=O)N[C@@H](C)C(=O)N[C@@H](CO)C(=O)N[C@@H](CC(C)C)C(=O)N[C@@H](CCCNC(=N)N)C(=O)N[C@@H](Cc1c[nH]cn1)C(=O)N[C@@H](Cc1ccc(O)cc1)C(=O)N[C@@H](Cc1ccc(O)cc1)C(=O)N[C@@H](CC(N)=O)C(=O)N[C@@H](Cc1c[nH]c2ccccc12)C(=O)N[C@@H](CC(C)C)C(=O)N[C@H](C(=O)N[C@@H](CCCNC(=N)N)C(=O)N(C)[C@@H](CCC(N)=O)C(=O)N[C@@H](CCCNC(=N)N)C(=O)N[C@@H](Cc1ccc(O)cc1)C(N)=O)[C@@H](C)O` [Compound 222, Y-Aib-E-G-T-F-T-S-D-Y-S-I-Aib-L-E-K-Q-A-Q-Aib-A-F-V-E-W-L-I-K(1,3)-G-G-P-S-E-G-A-S-L-R-H-Y-Y-N-W-L-T-R-NMeQ-R-Y-NH2.C20DA-gGlu-gGlu-gGlu-gGlu-gGlu-gGlu-eLys(1,2)]: the results for the EC50 in series [1] (setting [6]), in series [2] (setting [7]) and in series [3] (setting [9]) were 0.24 nM, 0.19 nM and 13.3 nM, respectively. In addition, in series [4], the MRT worked out at 11.8 h. Moreover, in series [5], the “Acute Food Intake 24 h 30 nmol/kg [% CTL]” value is on record as 72 % CTL.
